According to patent publication US20250098726A1, “AEROSOLISABLE MATERIAL” (Nicoventures Trading Limited, priority 2022, published 2025):

Test: solubility trial of sensates in propylene glycol/glycerol mixture
Type: physicochemical
Details: PG:VG 70:30, sensate w/w % subtracted from PG (Symheat PV 1, WS-3 0.8, Ginger Extract 0.1 w/w %); one hour following addition of VG
From the text: Formulations were produced containing propylene glycol (PG) and glycerol (VG) at a 70:30 ratio with the w/w % sensate addition subtracted from the w/w % of propylene glycol as is typical in the art.

Soluble: ✓
SMILES: CCNC(=O)[C@@H]1C[C@H](C)CC[C@H]1C(C)C (stereo in doubt) [WS-3, N-ethyl-5-methyl-2-propan-2-ylcyclohexane-1-carboxamide]
